Measurements as given in US20240360178A1, “MACROCYCLIC IMMUNOMODULATORS” (Bristol-Myers Squibb Company, priority 2021, published 2024).
Starred links: 1 amine or outer side, 2 acyl side, 3 side chain; linkers in the order of their positions; H or OH if unused. Positions of bridges follow the written chain, without caps; N, C: chain ends. Non-standard residues stand in square brackets, D forms with d. Residues, ends and D or L forms follow the SMILES beside them. ξ: configuration not given here. *: point of attachment. Phe(4-CH2NH2) = NCc1ccc(C[C@H](N)C(=O)O)cc1; Bip = N[C@@H](Cc1ccc(-c2ccccc2)cc1)C(=O)O; Phe(3-CN) = N#Cc1cccc(C[C@H](N)C(=O)O)c1; Phe(3-OMe) = COc1cccc(C[C@H](N)C(=O)O)c1; X1 = O=C([C@H](Cc1ccn[nH]1)N[*:1])[*:2]; Phe(2-Cl) = N[C@@H](Cc1ccccc1Cl)C(=O)O; Phe(3-Me) = Cc1cccc(C[C@H](N)C(=O)O)c1; NMeF = CN[C@@H](Cc1ccccc1)C(=O)O; 4Pal = N[C@@H](Cc1ccncc1)C(=O)O; Cha = N[C@@H](CC1CCCCC1)C(=O)O; Cit = NC(=O)NCCC[C@H](N)C(=O)O; NMeN = CN[C@@H](CC(N)=O)C(=O)O; Carboxymethyl = O=C(O)C*; NMeA = CN[C@@H](C)C(=O)O; Nle = CCCC[C@H](N)C(=O)O; Orn = NCCC[C@H](N)C(=O)O; Dab = NCC[C@H](N)C(=O)O; Dap = NC[C@H](N)C(=O)O; ξV = CC(C)C(N)C(=O)O; Sar = CNCC(=O)O

These compounds were tested against T1, human PD-1 (Jurkat-PD-1 cells) / PE-labeled human PD-L1-Ig (Homo sapiens, UniProt Q15116) (assay: Jurkat-PD-1 Cell Binding High-Content Screening Assay (CBA); Jurkat hPD1-PDL1 assay). Settings: Jurkat cell line over-expressing human PD-1; PE-labeled PD-L1-Ig 20 nM final; compound incubated 2 hours at 37° C.; read-out: Jurkat HPD1-PDL1 IC50.
T1 construct: expressed in transfected cells; host or cells: Jurkat cell line over-expressing human PD-1
T1 sequence (Q15116 25-288): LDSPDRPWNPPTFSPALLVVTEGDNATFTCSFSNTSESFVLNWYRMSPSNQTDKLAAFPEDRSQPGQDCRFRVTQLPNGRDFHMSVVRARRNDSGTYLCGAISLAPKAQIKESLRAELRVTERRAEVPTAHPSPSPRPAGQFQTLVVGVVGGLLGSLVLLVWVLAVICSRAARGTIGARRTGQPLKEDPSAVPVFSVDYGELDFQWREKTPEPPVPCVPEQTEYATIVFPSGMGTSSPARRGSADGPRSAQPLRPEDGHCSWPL
Method in brief: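 Jurkat cells over-expressing human PD-1, seeded in DMEM with 10% fetal calf serum, were preincubated with compound for 2 hours at 37° C. PE-labeled human PD-L1-Ig was then added at 20 nM final, and cell-bound fluorescence was read by high-content imaging.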

Structure (SMILES) | IC50 [nM]
CC(C)C[C@@H]1NC(=O)[C@H](CCCNC(=N)N)NC(=O)[C@H](Cc2ccccc2)N(C)C(=O)[C@H](C)N(C)C(=O)[C@H](CCCNC(=N)N)NC(=O)[C@H](Cc2ccc(-c3ccccc3)cc2)NC(=O)[C@H](C(C)C)NC(=O)[C@H](Cc2c[nH]c3ccccc23)NC(=O)[C@H](CC(=O)O)NC(=O)[C@H](Cc2ccc(O)cc2)NC(=O)[C@H](Cc2ccccc2)NC(=O)CSC[C@@H](C(=O)NCC(N)=O)NC(=O)[C@H](CCN)NC(=O)[C@H](C(C)C)NC1=O [Example 1332] ({CH2CO}-FYDWV[Bip]R[NMeA][NMeF]RLV[Dab]CG-NH2; thioether N-14) | 790
CC(C)C[C@@H]1NC(=O)[C@H](Cc2c[nH]c3ccccc23)NC(=O)[C@H](CC(=O)O)NC(=O)[C@H](Cc2ccc(O)cc2)NC(=O)[C@H](Cc2ccccc2)NC(=O)CSC[C@@H](C(=O)NCC(N)=O)NC(=O)[C@H](CO)NC(=O)[C@H](C(C)C)NC(=O)[C@H](CC(C)C)NC(=O)[C@H](CC(N)=O)NC(=O)[C@H](CC(N)=O)N(C)C(=O)[C@H](C)N(C)C(=O)[C@H](C(C)C)NC(=O)[C@H](Cc2ccc(-c3ccccc3)cc2)NC1=O [Example 1148] ({CH2CO}-FYDWL[Bip]V[NMeA][NMeN]NLVSCG-NH2; thioether N-14) | 670
CC(C)C[C@@H]1NC(=O)[C@H](CCCNC(=N)N)NC(=O)[C@H](Cc2ccccc2)N(C)C(=O)[C@H]2CCCN2C(=O)[C@H](CCCNC(=N)N)NC(=O)[C@H](Cc2ccc(-c3ccccc3)cc2)NC(=O)[C@H](C(C)C)NC(=O)[C@H](Cc2c[nH]c3ccccc23)NC(=O)[C@H](CC(=O)O)NC(=O)[C@H](Cc2ccc(O)cc2)NC(=O)[C@H](CC(N)=O)NC(=O)CSC[C@@H](C(=O)N[C@@H](C)C(N)=O)NC(=O)[C@H]([C@@H](C)O)NC(=O)[C@H](C(C)C)NC1=O [Example 1362] ({CH2CO}-NYDWV[Bip]R[dP][NMeF]RLVTCA-NH2; thioether N-14) | 190
CC(C)C[C@@H]1NC(=O)[C@H](CCCCN)NC(=O)[C@H](Cc2ccccc2)N(C)C(=O)[C@H](C)N(C)C(=O)[C@H](CCCNC(=N)N)NC(=O)[C@H](Cc2ccc(-c3ccccc3)cc2)NC(=O)[C@H](C(C)C)NC(=O)[C@H](Cc2c[nH]c3ccccc23)NC(=O)[C@H](CC(=O)O)NC(=O)[C@H](Cc2ccc(O)cc2)NC(=O)[C@H](Cc2ccccc2)NC(=O)CSC[C@@H](C(=O)N[C@@H](CO)C(N)=O)NC(=O)[C@H]([C@@H](C)O)NC(=O)[C@H](C(C)C)NC1=O [Example 1359] ({CH2CO}-FYDWV[Bip]R[NMeA][NMeF]KLVTCS-NH2; thioether N-14) | 270
CC(C)C[C@@H]1NC(=O)[C@H](CCCNC(=N)N)NC(=O)[C@H](Cc2ccccc2)N(C)C(=O)[C@H](C)N(C)C(=O)[C@H](CCCNC(=N)N)NC(=O)[C@H](Cc2ccc(-c3ccccc3)cc2)NC(=O)[C@H](C(C)C)NC(=O)[C@H](Cc2c[nH]c3ccccc23)NC(=O)[C@H](CC(=O)O)NC(=O)[C@H](Cc2ccc(O)cc2)NC(=O)[C@H](Cc2ccc(CN)cc2)NC(=O)CSC[C@@H](C(=O)NCC(N)=O)NC(=O)[C@H](CO)NC(=O)[C@H](C(C)C)NC1=O [Example 1256] ({CH2CO}-[Phe(4-CH2NH2)]YDWV[Bip]R[NMeA][NMeF]RLVSCG-NH2; thioether N-14) | 340
CC(C)C[C@@H]1NC(=O)[C@H](Cc2ccccc2)NC(=O)[C@H](CC(=O)O)NC(=O)[C@H](Cc2ccc(O)cc2)NC(=O)[C@H](Cc2ccccc2)NC(=O)CSC[C@@H](C(=O)NCC(N)=O)NC(=O)[C@H](CO)NC(=O)[C@H](C(C)C)NC(=O)[C@H](CC(C)C)NC(=O)[C@H](CC(N)=O)NC(=O)CN(C)C(=O)[C@H](C)N(C)C(=O)[C@H](C(C)C)NC(=O)[C@H](Cc2ccc(-c3ccccc3)cc2)NC1=O [Example 1088] ({CH2CO}-FYDFL[Bip]V[NMeA][Sar]NLVSCG-NH2; thioether N-14) | 250
CC(C)C[C@@H]1NC(=O)[C@H](Cc2c[nH]c3ccccc23)NC(=O)[C@H](CC(=O)O)NC(=O)[C@H](Cc2ccc(O)cc2)NC(=O)[C@H](Cc2ccncc2)NC(=O)CSC[C@@H](C(=O)NCC(N)=O)NC(=O)[C@H](CO)NC(=O)[C@H](C(C)C)NC(=O)[C@H](CC(C)C)NC(=O)[C@H](CC(N)=O)NC(=O)CN(C)C(=O)[C@H](C)N(C)C(=O)[C@H](C(C)C)NC(=O)[C@H](Cc2ccc(-c3ccccc3)cc2)NC1=O [Example 1107] ({CH2CO}-[4Pal]YDWL[Bip]V[NMeA][Sar]NLVSCG-NH2; thioether N-14) | 340
CC(C)C[C@@H]1NC(=O)[C@H](Cc2c[nH]c3ccccc23)NC(=O)[C@H](CC(=O)O)NC(=O)[C@H](Cc2ccc(O)cc2)NC(=O)[C@H](Cc2ccn[nH]2)NC(=O)CSC[C@@H](C(=O)N[C@@H](C)C(N)=O)NC(=O)[C@H](CO)NC(=O)[C@H](C(C)C)NC(=O)[C@H](CC(C)C)NC(=O)[C@H](CC(N)=O)NC(=O)CN(C)C(=O)[C@H](C)N(C)C(=O)[C@H](C(C)C)NC(=O)[C@H](Cc2ccc(-c3ccccc3)cc2)NC1=O [Example 1094] ({CH2CO}-[X1]YDWL[Bip]V[NMeA][Sar]NLVSCA-NH2; thioether N-14) | 280
CC(C)C[C@@H]1NC(=O)CSC[C@@H](C(=O)NCC(N)=O)NC(=O)[C@H](CO)NC(=O)[C@H](C(C)C)NC(=O)[C@H](CC(C)C)NC(=O)[C@H](CCN)NC(=O)[C@H](Cc2ccccc2)N(C)C(=O)[C@H](C)N(C)C(=O)[C@H](CCCNC(=N)N)NC(=O)[C@H](Cc2ccc(-c3ccccc3)cc2)NC(=O)[C@H](C(C)C)NC(=O)[C@H](Cc2c[nH]c3ccccc23)NC(=O)[C@H](CC(=O)O)NC(=O)[C@H](Cc2ccc(O)cc2)NC1=O [Example 1289] ({CH2CO}-LYDWV[Bip]R[NMeA][NMeF][Dab]LVSCG-NH2; thioether N-14) | 170
CC(C)C[C@@H]1NC(=O)[C@H](Cc2ccccc2Cl)NC(=O)[C@H](CC(=O)O)NC(=O)[C@H](Cc2ccc(O)cc2)NC(=O)[C@H](Cc2ccccc2)NC(=O)CSC[C@@H](C(=O)N[C@@H](C)C(N)=O)NC(=O)[C@H](CO)NC(=O)[C@H](C(C)C)NC(=O)[C@H](CC(C)C)NC(=O)[C@H](CC(N)=O)NC(=O)CN(C)C(=O)[C@H](C)N(C)C(=O)[C@H](C(C)C)NC(=O)[C@H](Cc2ccc(-c3ccccc3)cc2)NC1=O [Example 1170] ({CH2CO}-FYD[Phe(2-Cl)]L[Bip]V[NMeA][Sar]NLVSCA-NH2; thioether N-14) | 940
CCCC[C@@H]1NC(=O)[C@H](CC(N)=O)NC(=O)CN(C)C(=O)[C@H](C)N(C)C(=O)[C@H](C(C)C)NC(=O)[C@H](Cc2ccc(-c3ccccc3)cc2)NC(=O)[C@H](CC(C)C)NC(=O)[C@H](Cc2c[nH]c3ccccc23)NC(=O)[C@H](CC(=O)O)NC(=O)[C@H](Cc2ccc(O)cc2)NC(=O)[C@H](Cc2ccccc2)NC(=O)CSC[C@@H](C(=O)NCC(N)=O)NC(=O)[C@H](CO)NC(=O)[C@H](C(C)C)NC1=O [Example 1073] ({CH2CO}-FYDWL[Bip]V[NMeA][Sar]N[Nle]VSCG-NH2; thioether N-14) | 190

These reach a lower IC50. Values come first.

IC50 [nM] | Structure (SMILES)
20 | COc1cccc(C[C@@H]2NC(=O)[C@H](CC(=O)O)NC(=O)[C@H](Cc3cccc(C#N)c3)NC(=O)[C@H](CN)NC(=O)CSC[C@@H](C(=O)N[C@@H](C)C(N)=O)NC(=O)[C@H](CO)NC(=O)[C@H](C(C)C)NC(=O)[C@H](CC(C)C)NC(=O)[C@H](CC(N)=O)NC(=O)[C@H]3CCCN3C(=O)[C@H](C)N(C)C(=O)[C@H](C(C)C)NC(=O)[C@H](Cc3ccc(-c4ccccc4)cc3)NC(=O)[C@H](CC(C)C)NC2=O)c1 [Example 1393] ({CH2CO}-[Dap][Phe(3-CN)]D[Phe(3-OMe)]L[Bip]V[NMeA][dP]NLVSCA-NH2; thioether N-14)
10 | Cc1cccc(C[C@@H]2NC(=O)[C@H](CC(=O)O)NC(=O)[C@H](Cc3ccc(O)cc3)NC(=O)[C@H](CC(N)=O)NC(=O)CSC[C@@H](C(=O)N[C@@H](C)C(N)=O)NC(=O)[C@H]([C@@H](C)O)NC(=O)[C@H](C(C)C)NC(=O)[C@H](CC(C)C)NC(=O)[C@H](CCN)NC(=O)[C@H](Cc3ccccc3)N(C)C(=O)[C@H](C)N(C)C(=O)[C@H](CCCNC(N)=O)NC(=O)[C@H](Cc3ccc(-c4ccccc4)cc3)NC(=O)[C@H](C(C)C)NC2=O)c1 [Example 1374] ({CH2CO}-NYD[Phe(3-Me)]V[Bip][Cit][NMeA][NMeF][Dab]LVTCA-NH2; thioether N-14)
50 | CC(C)C[C@@H]1NC(=O)[C@H](Cc2c[nH]c3ccccc23)NC(=O)[C@H](CC(=O)O)NC(=O)[C@H](Cc2ccc(OCC(=O)O)cc2)NC(=O)[C@H](Cc2ccccc2)NC(=O)CSC[C@@H](C(=O)N[C@@H](C)C(N)=O)NC(=O)[C@H](CO)NC(=O)[C@H](C(C)C)NC(=O)[C@H](CC(C)C)NC(=O)[C@H](CC(N)=O)NC(=O)[C@H]2CCCN2C(=O)[C@H](C)N(C)C(=O)[C@H](C(C)C)NC(=O)[C@H](Cc2ccc(-c3ccccc3)cc2)NC1=O [Example 1029] ({CH2CO}-FY(Carboxymethyl)DWL[Bip]V[NMeA][dP]NLVSCA-NH2; thioether N-14)
30 | Cc1cccc(C[C@@H]2NC(=O)[C@H](CC(=O)O)NC(=O)[C@H](Cc3ccc(OCC(=O)O)cc3)NC(=O)[C@H](CN)NC(=O)CSC[C@@H](C(=O)N[C@@H](C)C(N)=O)NC(=O)[C@H]([C@@H](C)O)NC(=O)[C@H](C(C)C)NC(=O)[C@H](CC3CCCCC3)NC(=O)[C@H](CCN)NC(=O)[C@H](Cc3ccccc3)N(C)C(=O)[C@H](CCCN)NC(=O)[C@H](CCC(=O)O)NC(=O)[C@H](Cc3ccc(-c4ccccc4)cc3)NC(=O)C(C(C)C)NC2=O)c1 (stereo partly shown) [Example 1448] ({CH2CO}-[Dap]Y(Carboxymethyl)D[Phe(3-Me)][ξV][Bip]E[Orn][NMeF][Dab][Cha]VTCA-NH2; thioether N-14)
20 | Cc1cccc(C[C@@H]2NC(=O)[C@H](CC(=O)O)NC(=O)[C@H](Cc3ccncc3)NC(=O)[C@H](Cc3ccc(OCC(=O)O)cc3)NC(=O)CSC[C@@H](C(=O)N[C@@H](C)C(N)=O)NC(=O)[C@H]([C@@H](C)O)NC(=O)[C@H](C(C)C)NC(=O)[C@H](CC3CCCCC3)NC(=O)[C@H](CCN)NC(=O)[C@H](Cc3ccccc3)N(C)C(=O)[C@H](CCCN)NC(=O)[C@H](CCC(=O)O)NC(=O)[C@H](Cc3ccc(-c4ccccc4)cc3)NC(=O)C(C(C)C)NC2=O)c1 (stereo partly shown) [Example 1446] ({CH2CO}-Y(Carboxymethyl)[4Pal]D[Phe(3-Me)][ξV][Bip]E[Orn][NMeF][Dab][Cha]VTCA-NH2; thioether N-14)
